Source: paper PMC4792161, “A novel pyrazole derivative protects from ovariectomy-induced osteoporosis through the inhibition of NADPH oxidase” (Scientific Reports, 2016)
Counter-ions that a name gives are not always drawn.

Columns and labels:
[1] = system: Mature OCs; experiment: Bone resorption assay on dentine discs; format: cell-based, C57BL/6 mice; details: 10 μM, 24 hours
Protocol: The cells were removed from the dentine discs and the dentine discs were stained with hematoxylin. Pit areas were photographed under a light microscope and analyzed using Image-Pro Plus version 4.5 software (Media-Cybernetics, Rockville, MD, USA). […]
Scale bar, 500 μm. (C,D) Mature OCs were generated with M-CSF and RANKL, cells were seeded onto dentine discs and further cultured with […]
Cells were stained with hematoxylin for visualization of pit formation (C). The area of resorption pits were measured with Image-Pro Plus 4.5 (D). Scale bar, 500
μm. Data represent mean ± S.D., n.s., not significant. […]

[2] = system: OVX-induced osteoporotic ddY mice; experiment: Tibia weights (wet, dry, ash) in OVX mice; format: in vivo
Protocol: The right sides of femur and tibia were weighed and then dried at 120 °C for 8 hours. The dried bones were carbonized at 800 °C for 6 hours in a furnace (Daihan Scientific, Korea) to detect ash absolute weights, after measurement of BMD and failure load. To reduce the individual body weight differences, the relative weight (%) was calculated using body weight at sacrifice and absolute weight as [Relative bone weights = (Absolute bone weight/Body weight at sacrifice) ×100]. In addition, ashed bones were ground and dissolved in nitric acid. In diluted solution, Ca and P contents were calculated (mg/g bone) using an orthocresolphthalein complex and enzyme methods, respectively. The Ca/P ratio (%) was calculated as (Tibia Ca contents/Tibia P contents) ×100.
Supplementary Table S4. Tibia Weights in OVX Mice Values are expressed mean ± S.D. of eight mice Risedronate sodium was administered at 2.5mg/kg levels a p<0.01 as compared with sham control […]
material OVX = ovariectomy
Groups Tibia absolute weights (g) Tibia relative weights (% of body weight)Wet Dry Ash Wet Dry Ash

[3] = target: xanthine oxidase (Bos taurus, UniProt P80457); experiment: Xanthine oxidase assay (lucigenin); format: biochemical
Sequence of xanthine oxidase (P80457 2-1332): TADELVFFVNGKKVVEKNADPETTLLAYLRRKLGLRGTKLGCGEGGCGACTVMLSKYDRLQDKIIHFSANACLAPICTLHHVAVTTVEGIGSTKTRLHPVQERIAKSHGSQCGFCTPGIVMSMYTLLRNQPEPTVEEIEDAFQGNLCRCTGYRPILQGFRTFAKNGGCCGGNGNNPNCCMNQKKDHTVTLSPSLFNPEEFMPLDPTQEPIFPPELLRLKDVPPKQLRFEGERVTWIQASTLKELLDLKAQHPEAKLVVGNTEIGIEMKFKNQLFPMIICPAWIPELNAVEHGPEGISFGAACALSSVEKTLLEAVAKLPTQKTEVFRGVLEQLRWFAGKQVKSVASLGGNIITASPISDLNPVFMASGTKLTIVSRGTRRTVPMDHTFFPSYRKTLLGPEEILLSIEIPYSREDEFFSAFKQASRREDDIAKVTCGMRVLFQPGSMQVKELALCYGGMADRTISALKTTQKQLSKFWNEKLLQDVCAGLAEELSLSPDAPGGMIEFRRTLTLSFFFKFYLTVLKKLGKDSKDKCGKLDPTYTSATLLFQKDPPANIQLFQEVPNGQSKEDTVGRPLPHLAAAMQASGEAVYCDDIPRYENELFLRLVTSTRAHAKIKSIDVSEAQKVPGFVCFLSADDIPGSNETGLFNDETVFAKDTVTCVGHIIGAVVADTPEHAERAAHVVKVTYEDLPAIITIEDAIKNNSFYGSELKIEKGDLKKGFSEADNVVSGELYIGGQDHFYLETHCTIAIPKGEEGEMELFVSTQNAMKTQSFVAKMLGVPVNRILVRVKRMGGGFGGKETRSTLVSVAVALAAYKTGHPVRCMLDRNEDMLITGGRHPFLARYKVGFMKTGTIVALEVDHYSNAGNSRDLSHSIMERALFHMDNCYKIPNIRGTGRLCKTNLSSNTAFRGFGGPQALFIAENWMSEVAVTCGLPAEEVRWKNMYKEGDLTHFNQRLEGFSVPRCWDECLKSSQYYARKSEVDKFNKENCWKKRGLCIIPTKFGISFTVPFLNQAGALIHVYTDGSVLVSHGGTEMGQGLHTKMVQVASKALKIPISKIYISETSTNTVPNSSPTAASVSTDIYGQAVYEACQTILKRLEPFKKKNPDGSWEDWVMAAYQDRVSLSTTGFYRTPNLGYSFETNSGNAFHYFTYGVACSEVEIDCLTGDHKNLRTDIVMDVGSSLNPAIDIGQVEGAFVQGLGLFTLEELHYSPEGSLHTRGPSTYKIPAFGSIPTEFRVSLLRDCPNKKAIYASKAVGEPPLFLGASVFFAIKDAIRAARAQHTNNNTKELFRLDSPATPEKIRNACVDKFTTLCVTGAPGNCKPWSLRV
Protocol: Xanthine oxidase activity was measured by lucigenin. Reaction mixtures contained 0.1 mU xanthine oxidase, 0.25 mM Xanthine, and 0.4 mM lucigenin with the indicated inhibitor (0–20 μM). Luminescence measured over 30 min at 37 °C with luminometor (DTX800, Beckman coulter).

[4] = Body weight changes in OVX mice; format: in vivo, ddY mice; details: risedronate 2.5 mg/kg; Ewha-18278 2.5, 5, 10 and 20 mg/kg; 28 days
Protocol: (§1) The study was reviewed and approved by the Institutional Animal Care and Use Committee (IACUC) of Center for Laboratory Animal Sciences, Ewha Industry-University Cooperation Foundation, Ewha Womans University. Experimental methods were carried out in accordance with the approved ethic guidelines in Ewha Industry-University Cooperation Foundation, Ewha Womans University. Beginning 4 weeks after OVX, the female ddY mice received 2.5, 5, 10, or 20 mg/kg of #18–278, 2.5 mg/kg of risedronate, or vehicle once daily for 28 days. The Changes in body weight, bone weight, bone mineral density (BMD), failure load (FL), bone calcium (Ca), inorganic phosphorus (P) contents, histology and histomorphology were monitored. Serum osteocalcin and bone specific alkaline phosphatase (bALP) were monitored in mice receiving Ewha-18278.
R esi dronat e 2. 5mg/kg t reated mi ce […]
D ay after administration (d)
Supplementary Figure S7. Body weight changes in OVX mice. We selected eight mice per group showing more increases of body weights as compared with sham-operated mice and regarded as good OVX animals at four weeks after OVX surgery, consequently, significant increases of body weights were detected in all OVX groups as compared with sham control mice throughout 28 days of […]
mice, in the present study. Values are expressed mean ± S.D. of eight mice. Risedronate sodium was administered at 2.5mg/kg levels. […]

[5] = system: BMMs; experiment: RANKL-induced OC differentiation, TRAP staining; format: cell-based, C57BL/6 mice; details: M-CSF 30 ng/ml, RANKL 100 ng/ml, dose-dependent
Protocol: RANKL-induced ROS generation was monitored by confocal microscopic analysis of DCF fluorescence. Data represent three repeated experiments and are shown as mean ± SD (n = 3). […] (D) TRAP^+ MNCs containing more than 3 nuclei were counted. Data represent mean ± S.D., *P < 0.005. Scale bar, 500 μm.
Primary BMMs were obtained from 6- to 8-week-old male C57BL/6 mice (The Jackson Laboratory, Bar Harbor, […], USA) as described previously. In brief, bone marrow cells were cultured in α-MEM (HyClone, Logan, UT, USA) containing 10% fetal bovine serum (FBS) (HyClone, Logan UT, USA) with 30 ng/ml macrophage-colony stimulating facor (M-CSF) for 3 days to obtain OC precursor cells of monocyte/macrophage lineage. For OC differentiation, the precursor cells were treated with 100 ng/ml RANKL in the presence of M-CSF with or without for 3–4 days. OCs were fixed with 4% paraformaldehyde and stained for tartrate-resistant acid phosphatase (TRAP) using a leukocyte acid phosphatase cytochemistry kit (Sigma-Aldrich, St. Louis, MO, USA) according to the manufacturer’s instructions. TRAP-positive multinucleated cells (TRAP^+ MNCs) containing three or more nuclei were counted as OC-like cells.

[6] = system: OVX-induced osteoporotic ddY mice; experiment: Right femur BMD by DEXA in OVX mice; format: in vivo; details: oral once daily 28 days
[7] = system: OVX-induced osteoporotic ddY mice; experiment: OVX-induced osteoporosis in ddY mice, overall anti-osteoporotic effect; format: in vivo
Protocol: Risedronate sodium (2.5 mg/kg) served as a reference compound. […] Histopathology and histomorphometrical analyses including trabecular bone volume (BV/TV), trabecular bone number (Tb.N), trabecular bone length (Tb.Le), trabecular bone thickness (Tb.Th), cortical bone thickness (Ct.Th), OC number (N.Oc), bone mineral density (BMD) and bone strength (failure load, FL) were conducted.
as §1

[8] = 2.5 mg/kg oral once daily 28 days
[9] = 5 mg/kg oral once daily 28 days
[10] = 10 mg/kg oral once daily 28 days
[11] = 20 mg/kg oral once daily 28 days

SMILES: CCCc1c(-c2ccccc2)nn(-c2ccccn2)c1O [Ewha-18278, 3-phenyl-1-(pyridin-2-yl)-4-propyl-1H-5-hydroxypyrazole HCl]
- bone resorption activity of OCs [1]: did not affect
- Tibia absolute weights, Ash [2, 8]: 0.027 g
- Tibia absolute weights, Dry [2, 8]: 0.051 g
- Tibia absolute weights, Wet [2, 8]: 0.070 g
- Tibia absolute weights, Ash [2, 9]: 0.030 g
- Tibia absolute weights, Dry [2, 9]: 0.051 g
- Tibia absolute weights, Wet [2, 9]: 0.071 g
- Tibia absolute weights, Ash [2, 10]: 0.030 g
- Tibia absolute weights, Dry [2, 10]: 0.052 g
- Tibia absolute weights, Wet [2, 10]: 0.071 g
- Tibia absolute weights, Ash [2, 11]: 0.032 g
- Tibia absolute weights, Dry [2, 11]: 0.052 g
- Tibia absolute weights, Wet [2, 11]: 0.071 g
- inhibitory activity on xanthine oxidase [3]: no inhibitory activities
- body weights as compared with OVX control mice [4]: no meaningful changes
- formation of TRAP-positive OCs with >3 nuclei [5]: inhibited the formation of TRAP-positive OCs
- BMD of femur compared to OVX control [6]: dramatic increased BMD
- anti-osteoporotic effects ([7]; 2.5 mg/kg): did not produce obvious favorable anti-osteoporotic effects
- anti-osteoporotic effects compared to risedronate (2.5 mg/kg/day for 28 days) ([7]; 10 mg/kg/day for 28 days): similar
- cortical bone thickness compared to risedronate ([7]; OVX mice): significantly increased cortical bone thickness
- number of OCs in the tibia and femur ([7]; compared to control mice): decreased number of OCs
- optimal effective dosage ([7]; oral once daily 28 days, OVX mice): 10 mg/kg
